According to US9212202B2, “Methods of peptide modification” (Lytix Biopharma AS, priority 2007, dated 2015):
In brackets after ≈: the same amount, converted by molar mass. Peptide text beside a SMILES is read from it. * marks the point of attachment. NHPhenethyl = c1ccc(CCN*)cc1; NHBn = c1ccc(CN*)cc1

Tests used:
trypsin = trypsin (Bos taurus, UniProt P00760); assay: in vitro; conditions: bovine, isolated trypsin from bovine pancreas, pH 8.6
Method: Essentially salt-free trypsin from bovine pancreas, (T8802, 10000-15000 BAEE units/mg protein) was supplied by Sigma-Aldrich.
Each peptide was dissolved in a 0.1 M NH4HCO3 buffer (pH 6.5) to yield a final peptide concentration of 1 mg/ml. A trypsin solution was prepared by dissolving 1 mg of trypsin in 50 ml 0.1 M NH4HCO3 buffer (pH 8.2). For the stability determination, 250 μl freshly made trypsin solution and 250 μl peptide solution were incubated in 2 ml of 0.1 M NH4HCO3 buffer (pH 8.6) at 37° C. on a rocking table. Aliquots of 0.5 ml were sampled at different time intervals, diluted with 0.5 ml water:acetonitrile (60:40 v/v) containing 1% TFA and analysed by RP-HPLC as described above. Samples without trypsin addition taken at 0 h and after 20 h at 37° C. were used as negative controls. […] The plotted kinetic profiles were made on GraphPad Prism 4c.
The identity of the metabolites from the tryptic degradation was either determined by preparative trypsin degradation of the peptide, purification and structural determination by ESMS, or by chemical synthesis of authentic reference samples.

E. coli = assay: Minimal inhibitory concentration; format: cell-based
Method: (§1) A further compound was prepared according to the methods of the invention and Minimal Inhibitory Concentration (MIC) values obtained against a range of bacteria. • H-Arg-Tbt-Arg-NH(CH2)2 (2-Br-phenyl) Saponification of Boc-Arg-Tbt-Arg-OMe
(§2) Minimal inhibitory concentration (mg/l),

Str. pyogenes = assay: Minimal inhibitory concentration; format: cell-based
Method: as §1, §2

S. aureus = assay: Minimal inhibitory concentration; format: cell-based
Method: as §1, §2

MRSA = assay: Minimal inhibitory concentration; format: cell-based
Method: as §1, §2

Chain of trypsin (P00760 24-246): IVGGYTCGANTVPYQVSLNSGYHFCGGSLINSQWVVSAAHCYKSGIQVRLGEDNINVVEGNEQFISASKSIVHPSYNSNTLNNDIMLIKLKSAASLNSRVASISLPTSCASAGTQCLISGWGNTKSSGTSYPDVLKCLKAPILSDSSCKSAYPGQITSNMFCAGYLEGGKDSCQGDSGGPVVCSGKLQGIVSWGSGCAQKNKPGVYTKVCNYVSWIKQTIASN

| Compound | half-life at 0.1 mg/ml (trypsin) [h] | Minimal inhibitory concentration (E. coli) [mg/L] | Minimal inhibitory concentration (Str. pyogenes) [mg/L] | Minimal inhibitory concentration (S. aureus) [mg/L] | Minimal inhibitory concentration (MRSA) [mg/L] |
| --- | --- | --- | --- | --- | --- |
| N=C(N)NCCC[C@H](NC(=O)[C@H](Cc1c[nH]c2ccccc12)NC(=O)[C@@H](N)CCCNC(=N)N)C(=O)NCc1ccccc1 [E] (H-Arg-Trp-Arg-NHBn) | 1 | – | – | – | – |
| N=C(N)NCCC[C@H](NC(=O)[C@H](Cc1c[nH]c2ccccc12)NC(=O)[C@@H](N)CCCNC(=N)N)C(=O)NCCc1ccccc1 [F] (H-Arg-Trp-Arg-NHPhenethyl) | 7 | – | – | – | – |
| CC(C)(C)c1cc(C(C)(C)C)c2[nH]c(C(C)(C)C)c(C[C@H](NC(=O)[C@@H](N)CCCNC(=N)N)C(=O)N[C@@H](CCCNC(=N)N)C(=O)NCCc3ccccc3Br)c2c1 [—(CH2)2-(2-BrPh), H-Arg-Tbt-Arg-NH(CH2)2 (2-Br-phenyl)] | – | 6 (≈ 6.92 µM) | 3 (≈ 3.46 µM) | 3 (≈ 3.46 µM) | 3 (≈ 3.46 µM) |
